Reference: ChEMBL document CHEMBL3994582, “A2B adenosine receptor antagonists: Design, synthesis and biological evaluation of novel xanthine derivatives” (Eur J Med Chem, 2017)

Legend:
[1] = target: T1, Adenosine receptor A3 (Homo sapiens) (UniProt P0DMS8); assay: Displacement of [3H]-HEM-ADO from human adenosine receptor A3 expressed in HEK293 cell membranes at 1 uM after 90 mins by liquid scintillation counting method relative to control
T1 sequence (whole entry): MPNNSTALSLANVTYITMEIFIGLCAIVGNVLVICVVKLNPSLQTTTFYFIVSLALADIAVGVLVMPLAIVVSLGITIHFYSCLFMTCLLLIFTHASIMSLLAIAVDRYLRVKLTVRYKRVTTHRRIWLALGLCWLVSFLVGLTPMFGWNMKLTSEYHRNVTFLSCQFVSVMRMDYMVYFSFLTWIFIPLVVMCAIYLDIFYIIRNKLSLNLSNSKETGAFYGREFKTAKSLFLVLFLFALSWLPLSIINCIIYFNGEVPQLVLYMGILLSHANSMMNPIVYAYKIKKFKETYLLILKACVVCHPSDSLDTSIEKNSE

[2] = system: Liver; assay: Metabolic stability in human liver microsomes assessed as metabolic rate per mg protein preincubated for 5 mins followed by NADPH addition measured up to 30 mins by LC-MS/MS analysis; assay type: ADME, microsome; conditions: 0.5 h
[3] = target: T2, Adenosine receptor A2b (Homo sapiens, UniProt P29275); assay: Displacement of [3H]-MRS-1754 from human adenosine receptor A2b expressed in HEK293 cell membranes after 90 mins by liquid scintillation counting method
T2 sequence (P29275 whole entry): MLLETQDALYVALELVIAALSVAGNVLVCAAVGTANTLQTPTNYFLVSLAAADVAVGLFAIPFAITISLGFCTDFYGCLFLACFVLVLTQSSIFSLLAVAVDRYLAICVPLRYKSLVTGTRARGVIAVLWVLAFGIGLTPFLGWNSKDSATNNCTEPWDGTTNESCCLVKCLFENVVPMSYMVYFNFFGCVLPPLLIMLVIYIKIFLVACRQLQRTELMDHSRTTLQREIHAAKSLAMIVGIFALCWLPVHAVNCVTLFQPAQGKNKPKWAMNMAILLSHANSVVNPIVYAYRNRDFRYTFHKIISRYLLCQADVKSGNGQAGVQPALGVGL

[4] = target: T3, Adenosine receptor A1 (Homo sapiens) (UniProt P30542); assay: Displacement of [3H]DPCPX from human adenosine receptor A1 expressed in HEK293 cell membranes at 0.1 uM after 90 mins by liquid scintillation counting method relative to control
T3 sequence (whole entry): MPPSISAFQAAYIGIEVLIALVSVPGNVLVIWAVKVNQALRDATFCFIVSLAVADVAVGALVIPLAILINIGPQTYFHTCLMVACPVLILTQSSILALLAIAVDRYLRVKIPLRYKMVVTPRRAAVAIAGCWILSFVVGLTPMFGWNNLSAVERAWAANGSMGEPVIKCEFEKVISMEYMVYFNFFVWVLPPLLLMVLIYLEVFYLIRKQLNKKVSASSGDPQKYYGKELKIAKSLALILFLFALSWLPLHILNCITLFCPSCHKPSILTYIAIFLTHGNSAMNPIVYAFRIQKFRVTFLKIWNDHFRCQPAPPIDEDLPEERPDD

[5] = target: Adenosine receptor A2a (Homo sapiens, UniProt P29274); assay: Displacement of [3H]-ZM-241385 from human adenosine receptor A2a expressed in HEK293 cell membranes at 0.1 uM after 90 mins by liquid scintillation counting method relative to control
Sequence of Adenosine receptor A2a (P29274 whole entry): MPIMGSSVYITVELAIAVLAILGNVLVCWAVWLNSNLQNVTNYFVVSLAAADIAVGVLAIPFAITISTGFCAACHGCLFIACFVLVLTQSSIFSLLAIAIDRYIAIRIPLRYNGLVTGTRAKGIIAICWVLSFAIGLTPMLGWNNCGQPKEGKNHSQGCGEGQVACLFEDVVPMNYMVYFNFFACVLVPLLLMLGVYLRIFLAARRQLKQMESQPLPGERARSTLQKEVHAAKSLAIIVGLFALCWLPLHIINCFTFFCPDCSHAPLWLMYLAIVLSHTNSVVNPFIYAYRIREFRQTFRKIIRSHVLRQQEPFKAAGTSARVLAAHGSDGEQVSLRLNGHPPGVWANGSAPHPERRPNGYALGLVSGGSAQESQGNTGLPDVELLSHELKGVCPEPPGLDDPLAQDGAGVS

[6] = system: Liver; assay: Metabolic stability in mouse liver microsomes assessed as metabolic rate per mg protein preincubated for 5 mins followed by NADPH addition measured up to 30 mins by LC-MS/MS analysis; assay type: ADME, microsome; conditions: 0.5 h

CCCn1c(=O)c2[nH]c(-c3cnn(CC4CC(=O)N(c5cccc(OC(F)(F)F)c5)C4)c3)nc2n(CC)c1=O (stereo unspecified)
inhibition [1]: 3% | Drug metabolism [2]: 0.4 nmol/min/mg | Ki [3]: 0.0175 µM | inhibition [4]: 15% | inhibition [5]: 16% | Drug metabolism [6]: 0.25 nmol/min/mg

CCCn1c(=O)c2[nH]c(-c3cnn(CC4CC(=O)N(c5cccc(C(F)(F)F)c5)C4)c3)nc2n(CCC)c1=O (stereo unspecified)
inhibition [1]: 31% | Drug metabolism [2]: 0.18 nmol/min/mg | Ki [3]: 0.0065 µM | inhibition [4]: 25% | inhibition [5]: 48% | Drug metabolism [6]: 0.61 nmol/min/mg

CCCn1c(=O)c2[nH]c(-c3cnn(CC4CC(=O)N(c5ccc(C)cc5)C4)c3)nc2n(CCC)c1=O (stereo unspecified)
inhibition [1]: 0% | Ki [3]: 0.008 µM | inhibition [4]: 33% | inhibition [5]: 37% | Drug metabolism [6]: 0.25 nmol/min/mg

CCCn1c(=O)c2[nH]c(-c3cnn(CC(=O)N4CCN(c5ccc(F)c(Cl)c5)CC4)c3)nc2n(CCC)c1=O
inhibition [1]: 17% | Ki [3]: 0.0018 µM | inhibition [4]: 56% | inhibition [5]: 72%

CCCn1c(=O)c2[nH]c(-c3cnn(CC4CC(=O)N(c5cccc(C(F)(F)F)c5)C4)c3)nc2n(CC)c1=O (stereo unspecified)
inhibition [1]: 0% | Drug metabolism [2]: 0.12 nmol/min/mg | Ki [3]: 0.0045 µM | inhibition [4]: 18% | inhibition [5]: 23% | Drug metabolism [6]: 0.49 nmol/min/mg

CCCn1c(=O)c2[nH]c(-c3cnn(CC4CCN(c5ccc(OC(F)(F)F)cc5)C4)c3)nc2n(CCC)c1=O (stereo unspecified)
inhibition [1]: 2% | Drug metabolism [2]: 0.16 nmol/min/mg | Ki [3]: 0.014 µM | inhibition [4]: 23% | inhibition [5]: 26% | Drug metabolism [6]: 0.15 nmol/min/mg

CCCn1c(=O)c2[nH]c(-c3cnn(CC4CC(=O)N(c5cccc(F)c5)C4)c3)nc2n(CC)c1=O (stereo unspecified)
inhibition [1]: 0% | Drug metabolism [2]: 0.06 nmol/min/mg | Ki [3]: 0.024 µM | inhibition [4]: 30% | inhibition [5]: 37% | Drug metabolism [6]: 0.29 nmol/min/mg

CCCn1c(=O)c2[nH]c(-c3cnn(CC4CC(=O)N(c5ccc(C(=O)O)cc5)C4)c3)nc2n(CCC)c1=O (stereo unspecified)
Ki [3]: 0.077 µM

CCCn1c(=O)c2[nH]c(-c3cnn(CC4CC(=O)N(c5ccc(F)cc5)C4)c3)nc2n(CCC)c1=O (stereo unspecified)
inhibition [1]: 14% | Drug metabolism [2]: 0.06 nmol/min/mg | Ki [3]: 0.0097 µM | inhibition [4]: 31% | inhibition [5]: 42% | Drug metabolism [6]: 0.19 nmol/min/mg

CCCn1c(=O)c2[nH]c(-c3cc(OCC4CC(=O)N(c5cccc(F)c5)C4)no3)nc2n(CCC)c1=O (stereo unspecified)
Ki [3]: 0.09 µM

CCCn1c(=O)c2[nH]c(-c3cnn(CC4CC(=O)N(c5ccc(C#N)cc5)C4)c3)nc2n(CCC)c1=O (stereo unspecified)
inhibition [1]: 2% | Drug metabolism [2]: 0.15 nmol/min/mg | Ki [3]: 0.023 µM | inhibition [4]: 18% | inhibition [5]: 20% | Drug metabolism [6]: 0 nmol/min/mg

CCCn1c(=O)c2[nH]c(-c3cc(OCC4CC(=O)N(c5ccc(F)cc5)C4)no3)nc2n(CCC)c1=O (stereo unspecified)
inhibition [1]: 7% | Ki [3]: 0.21 µM | inhibition [4]: 0% | inhibition [5]: 0%

CCCn1c(=O)c2[nH]c(-c3cnn(CC(O)C4CC(=O)N(c5cccc(C(F)(F)F)c5)C4)c3)nc2n(CCC)c1=O (stereo unspecified)
inhibition [1]: 27% | Drug metabolism [2]: 0.19 nmol/min/mg | Ki [3]: 0.0012 µM | inhibition [4]: 12% | inhibition [5]: 60% | Drug metabolism [6]: 0.22 nmol/min/mg

CCCn1c(=O)c2[nH]c(-c3cnn(CC4CC(=O)N(c5ccc(OC(F)(F)F)cc5)C4)c3)nc2n(CCC)c1=O (stereo unspecified)
inhibition [1]: 0% | Drug metabolism [2]: 0.13 nmol/min/mg | Ki [3]: 0.004 µM | inhibition [4]: 23% | inhibition [5]: 24% | Drug metabolism [6]: 0.24 nmol/min/mg

CCCn1c(=O)c2[nH]c(-c3cnn(CC4CCN(c5cccc(OC)c5)C4)c3)nc2n(CCC)c1=O (stereo unspecified)
inhibition [1]: 12% | Drug metabolism [2]: 0.78 nmol/min/mg | Ki [3]: 0.0137 µM | inhibition [4]: 43% | inhibition [5]: 69% | Drug metabolism [6]: 0.67 nmol/min/mg

CCCn1c(=O)c2[nH]c(-c3cnn(CC4CC(=O)N(c5cccc(C)c5)C4)c3)nc2n(CCC)c1=O (stereo unspecified)
inhibition [1]: 0% | Drug metabolism [2]: 0.18 nmol/min/mg | Ki [3]: 0.0107 µM | inhibition [4]: 29% | inhibition [5]: 0% | Drug metabolism [6]: 0.46 nmol/min/mg

CCCn1c(=O)c2[nH]c(-c3cnn(CC4CCN(c5cccc(C(F)(F)F)c5)C4)c3)nc2n(CCC)c1=O (stereo unspecified)
inhibition [1]: 2% | Drug metabolism [2]: 0.01 nmol/min/mg | Ki [3]: 0.0036 µM | inhibition [4]: 38% | inhibition [5]: 57% | Drug metabolism [6]: 0 nmol/min/mg

CCCn1c(=O)c2[nH]c(-c3cnn(CC4CC(=O)N(c5cccc(F)c5)C4)c3)nc2n(CCC)c1=O (stereo unspecified)
inhibition [1]: 17% | Drug metabolism [2]: 0.02 nmol/min/mg | Ki [3]: 0.041 µM | inhibition [4]: 32% | inhibition [5]: 68% | Drug metabolism [6]: 0.35 nmol/min/mg

CCCn1c(=O)c2[nH]c(-c3cnn(CCC4CC(=O)N(c5cccc(C(F)(F)F)c5)C4)c3)nc2n(CCC)c1=O (stereo unspecified)
inhibition [1]: 29% | Drug metabolism [2]: 0.14 nmol/min/mg | Ki [3]: 0.0026 µM | inhibition [4]: 40% | inhibition [5]: 65% | Drug metabolism [6]: 0.3 nmol/min/mg

CCCn1c(=O)c2[nH]c(-c3cnn(CC4CC(=O)N(c5ccc(F)cc5F)C4)c3)nc2n(CCC)c1=O (stereo unspecified)
inhibition [1]: 0% | Drug metabolism [2]: 0.03 nmol/min/mg | Ki [3]: 0.019 µM | inhibition [4]: 13% | inhibition [5]: 45% | Drug metabolism [6]: 0.48 nmol/min/mg

CCCn1c(=O)c2[nH]c(-c3cnn(CC4CCN(c5ccc(OC)cc5)C4)c3)nc2n(CCC)c1=O (stereo unspecified)
inhibition [1]: 3% | Drug metabolism [2]: 0.37 nmol/min/mg | Ki [3]: 0.013 µM | inhibition [4]: 21% | inhibition [5]: 53% | Drug metabolism [6]: 0.43 nmol/min/mg

CCCn1c(=O)c2[nH]c(-c3cnn(CC(=O)N4CCN(c5ccc(C(F)(F)F)cc5)CC4)c3)nc2n(CCC)c1=O
inhibition [1]: 11% | Ki [3]: 0.0009 µM | inhibition [4]: 53% | inhibition [5]: 71%

CCCn1c(=O)c2[nH]c(-c3cnn(CC4CCN(c5ccc(C)cc5)C4)c3)nc2n(CCC)c1=O (stereo unspecified)
inhibition [1]: 2% | Drug metabolism [2]: 0.66 nmol/min/mg | Ki [3]: 0.012 µM | inhibition [4]: 26% | inhibition [5]: 51% | Drug metabolism [6]: 0.38 nmol/min/mg

CCCn1c(=O)c2[nH]c(-c3cnn(C(C)C4CC(=O)N(c5cccc(C(F)(F)F)c5)C4)c3)nc2n(CCC)c1=O (stereo unspecified)
inhibition [1]: 18% | Drug metabolism [2]: 0.2 nmol/min/mg | Ki [3]: 0.004 µM | inhibition [4]: 17% | inhibition [5]: 15% | Drug metabolism [6]: 0.59 nmol/min/mg

CCCn1c(=O)c2[nH]c(-c3cnn(CC4CC(=O)N(c5cccc(OC(F)(F)F)c5)C4)c3)nc2n(CCC)c1=O (stereo unspecified)
inhibition [1]: 0% | Drug metabolism [2]: 0.23 nmol/min/mg | Ki [3]: 0.009 µM | inhibition [4]: 20% | inhibition [5]: 49% | Drug metabolism [6]: 0.57 nmol/min/mg

CCCn1c(=O)c2[nH]c(-c3cnn(CC4CCN(c5cccc(F)c5)C4=O)c3)nc2n(CCC)c1=O (stereo unspecified)
Ki [3]: 0.043 µM

CCCn1c(=O)c2[nH]c(-c3cnn(CC(=O)N4CCN(c5ccc(F)cc5F)CC4)c3)nc2n(CCC)c1=O
inhibition [1]: 0% | Drug metabolism [2]: 0.11 nmol/min/mg | Ki [3]: 0.0107 µM | inhibition [4]: 45% | inhibition [5]: 56% | Drug metabolism [6]: 0.23 nmol/min/mg

CCCn1c(=O)c2[nH]c(-c3cnn(CC4CC(=O)N(c5ccc(OC)cc5)C4)c3)nc2n(CCC)c1=O (stereo unspecified)
inhibition [1]: 27% | Drug metabolism [2]: 0.19 nmol/min/mg | Ki [3]: 0.009 µM | inhibition [4]: 38% | inhibition [5]: 51% | Drug metabolism [6]: 0.22 nmol/min/mg

CCCn1c(=O)c2[nH]c(-c3cc(OCC4CC(=O)N(c5cccc(C(F)(F)F)c5)C4)no3)nc2n(CCC)c1=O (stereo unspecified)
inhibition [1]: 5% | Ki [3]: 0.069 µM | inhibition [4]: 0% | inhibition [5]: 0%

CCCn1c(=O)c2[nH]c(-c3cnn(CC(=O)N4CCN(c5ccc(C)cc5)CC4)c3)nc2n(CCC)c1=O
inhibition [1]: 11% | Ki [3]: 0.005 µM | inhibition [4]: 58% | inhibition [5]: 58%

CCCn1c(=O)c2[nH]c(-c3cnn(CC4CCN(c5cccc(C(F)(F)F)c5)C4=O)c3)nc2n(CCC)c1=O (stereo unspecified)
inhibition [1]: 17% | Drug metabolism [2]: 0.2 nmol/min/mg | Ki [3]: 0.006 µM | inhibition [4]: 58% | inhibition [5]: 30% | Drug metabolism [6]: 0.34 nmol/min/mg

CCCn1c(=O)c2[nH]c(-c3cnn(CC4CC(=O)N(c5cccc(OC)c5)C4)c3)nc2n(CCC)c1=O (stereo unspecified)
inhibition [1]: 11% | Drug metabolism [2]: 0.18 nmol/min/mg | Ki [3]: 0.0216 µM | inhibition [4]: 22% | inhibition [5]: 46% | Drug metabolism [6]: 0.41 nmol/min/mg
